2 compounds from US20030176314A1, “Compounds for the treatment of pain” (priority 2001, published 2003) can be followed below.

Assay [1] deals with T1, human α1D adrenergic receptor (Homo sapiens, UniProt P25100).
T1 construct: host or cells: LM(tk-) cells, line L-α1A
T1 sequence (P25100 1-572): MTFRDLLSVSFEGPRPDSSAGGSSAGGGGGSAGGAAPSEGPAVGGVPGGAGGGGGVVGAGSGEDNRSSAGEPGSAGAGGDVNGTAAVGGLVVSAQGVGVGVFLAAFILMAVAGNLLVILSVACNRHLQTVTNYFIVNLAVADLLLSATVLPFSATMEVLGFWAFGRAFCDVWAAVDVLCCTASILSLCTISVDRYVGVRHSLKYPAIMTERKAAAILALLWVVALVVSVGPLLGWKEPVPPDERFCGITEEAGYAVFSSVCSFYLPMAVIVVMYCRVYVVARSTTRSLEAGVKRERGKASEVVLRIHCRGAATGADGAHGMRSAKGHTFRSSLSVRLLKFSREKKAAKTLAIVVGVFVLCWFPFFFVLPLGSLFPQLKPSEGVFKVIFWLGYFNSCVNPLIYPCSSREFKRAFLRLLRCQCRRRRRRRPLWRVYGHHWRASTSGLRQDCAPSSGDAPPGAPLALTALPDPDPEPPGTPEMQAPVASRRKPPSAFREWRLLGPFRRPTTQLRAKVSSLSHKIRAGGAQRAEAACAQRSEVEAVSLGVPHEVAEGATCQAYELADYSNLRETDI
The assay can be described thus: Binding at human α1D adrenergic receptor. The settings on record: Table 8; read-out: hα1D Ki. From the text: (§1) α1 Human Adrenergic Receptors: To determine the binding of compounds to human α1 receptors, LM(tk−) cell lines stably transfected with the genes encoding the α1a, α1b, and α1d receptors were used. The nomenclature describing the α1 receptors was changed recently, such that the receptor formerly designated α1a is now designated α1d, and the receptor formerly designated α1c is now designated α1a. The cell lines expressing these receptors were deposited with the ATCC before the nomenclature change and reflect the subtype designations formerly assigned to these receptors. Thus, the cell line expressing the receptor described herein as the α1a receptor was deposited with the ATCC on Sep. […] The cell line expressing receptor described herein as the α1d receptor was deposited with the ATCC on Sep. […] The cell line expressing the α1b receptor is designated L-α1B, and was deposited on Sep.
(§2) The binding affinity (Ki) of these compounds were tested according to the protocols described herein at the following receptors; human α1A, α1B, α1D, α2A, α2B, and α2C adrenergic receptors; human Y1, Y2, Y4, and Y5 receptors; and N-Methyl-D-aspartic acid (NMDA) receptor channels. The binding interactions of these compounds were additionally tested at the norepinephrine (NE) transporter (NE uptake) and serotonin (5-hydroxytryptamine (5HT)) transporter (5HT uptake) according to protocols described herein

Assay [2] deals with T2, human α1B adrenergic receptor (Homo sapiens, UniProt P35368).
T2 construct: host or cells: LM(tk-) cells, line L-α1B
T2 sequence (P35368 1-520): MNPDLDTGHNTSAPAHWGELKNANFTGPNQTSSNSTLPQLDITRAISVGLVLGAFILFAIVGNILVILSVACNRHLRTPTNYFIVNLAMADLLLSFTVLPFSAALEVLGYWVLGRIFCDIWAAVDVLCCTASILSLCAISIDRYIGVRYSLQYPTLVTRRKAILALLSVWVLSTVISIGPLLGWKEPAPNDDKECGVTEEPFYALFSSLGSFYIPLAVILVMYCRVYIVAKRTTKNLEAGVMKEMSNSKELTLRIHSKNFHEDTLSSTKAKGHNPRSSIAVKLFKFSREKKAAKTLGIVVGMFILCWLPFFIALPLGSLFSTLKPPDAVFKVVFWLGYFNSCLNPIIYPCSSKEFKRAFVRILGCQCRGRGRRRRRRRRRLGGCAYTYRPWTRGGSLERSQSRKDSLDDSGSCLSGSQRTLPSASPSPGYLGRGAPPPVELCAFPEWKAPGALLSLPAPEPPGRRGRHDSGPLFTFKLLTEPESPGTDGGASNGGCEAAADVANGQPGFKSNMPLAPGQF
The assay can be described thus: Binding at human α1B adrenergic receptor. The conditions noted are these: Table 8; read-out: hα1B Ki.
Excerpt: as §1, §2

The target in assay [3] is T3, human α2C adrenergic receptor (Homo sapiens, UniProt P18825).
T3 construct: host or cells: LM(tk-) cells, line L-α2C
T3 sequence (P18825 1-462): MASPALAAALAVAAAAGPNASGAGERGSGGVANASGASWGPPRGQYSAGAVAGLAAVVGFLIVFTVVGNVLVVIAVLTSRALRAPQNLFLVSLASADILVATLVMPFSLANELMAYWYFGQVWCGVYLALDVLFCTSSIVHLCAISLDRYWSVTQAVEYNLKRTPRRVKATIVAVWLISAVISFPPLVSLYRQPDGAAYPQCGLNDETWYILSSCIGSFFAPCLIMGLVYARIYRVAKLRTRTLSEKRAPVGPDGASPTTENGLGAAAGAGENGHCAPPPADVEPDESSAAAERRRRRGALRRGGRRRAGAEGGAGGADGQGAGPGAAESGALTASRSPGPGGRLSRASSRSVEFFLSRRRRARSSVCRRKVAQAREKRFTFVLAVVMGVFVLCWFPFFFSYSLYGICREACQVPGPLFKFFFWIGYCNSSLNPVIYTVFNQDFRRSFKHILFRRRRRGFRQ
The assay can be described thus: Binding at human α2C adrenergic receptor. The conditions noted are these: Table 8; read-out: hα2C Ki.
Excerpt: α2 Human Adrenergic Receptors: To determine the binding of compounds to human α2 receptors, LM(tk−) cell lines stably transfected with the genes encoding the α2A, α2B, and α2C receptors were used. The cell line expressing the α2A receptor is designated L-α2A, and was deposited on Nov. 6, 1992, under ATCC Accession No. CRL 11180. The cell line expressing the α2B receptor is designated L-NGC-α2B, and was deposited on Oct. 25, 1989, under ATCC Accession No. CRL 10275. The cell line expressing the α2C receptor is designated L-α2C, and was deposited on Nov. 6, 1992, under ATCC Accession No. CRL-11181. Cell lysates were prepared as described herin, and suspended in 25 mM glycyiglycine buffer (pH 7.6 at room temperature). Equilibrium competition binding assay were performed using […] (0.5 nM), and nonspecific binding was determined by incubation with 10 μM phentolamine. The bound radioligand was separated by filtration through GF/B filters using a cell harvester.
as §2

For the compound `Cc1nc(NC(=N)N)nc2ccc3ccccc3c12` [Compound 1007A], the inhibition constant Ki in assay [1] amounted to 8.58 µM; in assay [2] it was 3.04 µM.
On to `Cc1cc(NC(=N)N)nc2ccc(Cl)cc12` [Compound 4005A, N-(6-chloro-4-methyl-2-quinolinyl)guanidine], for which the Ki in assay [3] is 0.765 µM.
